Patent US20170037028A1 (BAYER PHARMA AKTIENGESELLSCHAFT, priority 2013, published 2017)

Each compound was assayed against T1, GLUT1 (Homo sapiens, UniProt P11166) (assay: Indirect measurement of GLUT1 activity by quantification of intracellular ATP levels (glucose induced ATP increase)). Conditions: DLD1 cells; 0.1 mM glucose, 1 μM Rotenone, 15 min; CellTiter-Glo ATP readout; IC50 values standardized to cytochalasin B IC50 values; read-out: IC50 regarding glucose induced ATP increase (GLUT1 inhibition).
T1 sequence (P11166 1-492): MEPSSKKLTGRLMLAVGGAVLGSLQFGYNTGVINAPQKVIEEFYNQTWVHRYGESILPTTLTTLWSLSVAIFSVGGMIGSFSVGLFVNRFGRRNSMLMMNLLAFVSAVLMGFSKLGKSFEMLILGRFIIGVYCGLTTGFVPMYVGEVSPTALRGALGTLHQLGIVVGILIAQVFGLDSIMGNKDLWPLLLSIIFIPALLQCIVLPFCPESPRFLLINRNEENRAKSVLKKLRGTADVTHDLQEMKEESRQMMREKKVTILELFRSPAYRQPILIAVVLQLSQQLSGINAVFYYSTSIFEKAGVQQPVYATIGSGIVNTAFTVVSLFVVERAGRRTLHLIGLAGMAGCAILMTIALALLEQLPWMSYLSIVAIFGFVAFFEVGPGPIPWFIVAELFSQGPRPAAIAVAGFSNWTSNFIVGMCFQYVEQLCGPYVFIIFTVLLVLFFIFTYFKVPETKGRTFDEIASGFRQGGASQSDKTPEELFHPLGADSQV
Format: cell-based
Set-up: endogenous in cells; host or cells: DLD1 or CHO-K1
Method in brief: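 DLD1 or CHO-K1 cells were starved overnight in glucose-free medium with 1% FCS, then combined with an oxidative phosphorylation inhibitor. GLUT1 activity was read as glucose-induced ATP increase, GLUT2 as fructose-induced. Intracellular ATP was quantified by CellTiter-Glo luminescence.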
`Cc1nn(CC2CCOCC2)c(C)c1NC(=O)c1cc(C(F)(F)F)nc2ccc(Br)cc12` [Example 1114] showed an IC50 of 59.2 nM.

Same assay, conditions: read-out: IC50 regarding glucose induced ATP increase (GLUT1 inhibition)
`Cc1nn(Cc2ccc(C(=O)NCCc3ccccn3)cc2)c(C)c1NC(=O)c1cc(C(F)(F)F)nc2ccc(Br)cc12` [Example 1139] showed an IC50 of 105 nM.
`Cc1cc(Cn2nc(C(F)(F)F)c(NC(=O)c3cc(C(N)=O)nc4cc(F)ccc34)c2C)on1` [Example 1542] showed an IC50 of 84.9 nM.
`Cc1c(NC(=O)c2cc(C(N)=O)nc3cc(F)c(Cl)cc23)c(C(F)(F)F)nn1Cc1cccc(C#N)c1` [Example 1580] was tested, and the IC50 was 1.8 nM.
With `COC(=O)c1ccc(Cn2nc(C(F)(F)F)c(NC(=O)c3cc(C(N)=O)nc4cc(F)ccc34)c2C)cc1` [Example 367, methyl 4-{[4-{[(2-carbamoyl-7-fluoroquinolin-4-yl)carbonyl]amino}-5-methyl-3-(trifluoromethyl)-1H-pyrazol-1-yl]methyl}benzoate] the IC50 was 2.3 nM.
`Cc1nn(Cc2cccnc2)c(C)c1NC(=O)c1cc(C(F)(F)F)nc2ccc(Br)cc12` [Example 171, 6-bromo-N-[3,5-dimethyl-1-(pyridin-3-ylmethyl)-1H-pyrazol-4-yl]-2-(trifluoromethyl)quinoline-4-carboxamide] was tested, and the IC50 was 57.1 nM.
Work on `Cc1c(NC(=O)c2cc(C(F)(F)F)nc3ccc(Br)cc23)c(C(F)(F)F)nn1Cc1ccc(C#N)nc1` [Example 1056] yielded an IC50 of 15 nM.
With `Cc1c(NC(=O)c2cc(C(N)=O)nc3cc(F)c(Cl)cc23)c(C(F)(F)F)nn1Cc1ccc(S(C)(=O)=O)cc1` [Example 1438] the IC50 was 3.1 nM.
For `Cc1nn(Cc2ccc(CC(=O)N(C)C)cc2)c(C)c1NC(=O)c1cc(C(F)(F)F)nc2ccc(Br)cc12` [Example 156, 6-bromo-N-(1-{4-[2-(dimethylamino)-2-oxoethyl]benzyl}-3,5-dimethyl-1H-pyrazol-4-yl)-2-(trifluoromethyl)quinoline-4-carboxamide], the IC50 was 354 nM.
`Cc1nn(Cc2ccc(C#N)cc2)c(C)c1NC(=O)c1cc(C(N)=O)nc2c(Cl)cccc12` [Example 255, 8-chloro-N^4-[1-(4-cyanobenzyl)-3,5-dimethyl-1H-pyrazol-4-yl]quinoline-2,4-dicarboxamide] gave an IC50 of 1.4 nM.
In the case of `Cc1nn(Cc2ccc(F)c(F)c2)c(C)c1NC(=O)c1cc(C(N)=O)nc2cc(F)c(Cl)cc12` [Example 1472], the IC50 is reported as 0.9 nM.
`COc1ccc(CCCn2nc(C)c(NC(=O)c3cc(C(N)=O)nc4ccccc34)c2C)cc1` [Example 284, N^4-{1-[3-(4-methoxyphenyl)propyl]-3,5-dimethyl-1H-pyrazol-4-yl}quinoline-2,4-dicarboxamide] was tested, and the IC50 was 9 nM.
With `Cc1c(NC(=O)c2cc(C(N)=O)nc3cccc(F)c23)c(C(F)(F)F)nn1Cc1ccc(CC#N)cc1` [Example 1593] the IC50 was 1.3 nM.
Work on `Cc1nn(Cc2ccc(F)cc2F)c(C)c1NC(=O)c1cc(C(N)=O)nc2cccc(F)c12` [Example 1488] yielded an IC50 of 6.8 nM.
`Cc1cc(Cn2nc(C)c(NC(=O)c3cc(C(N)=O)nc4cc(F)c(Cl)cc34)c2C)on1` [Example 411, 6-chloro-N^4-{3,5-dimethyl-1-[(3-methyl-1,2-oxazol-5-yl)methyl]-1H-pyrazol-4-yl}-7-fluoroquinoline-2,4-dicarboxamide] showed an IC50 of 1.1 nM.
For `Cc1nn(Cc2ccc(C(=O)NCCn3cccn3)cc2)c(C)c1NC(=O)c1cc(C(F)(F)F)nc2ccc(Br)cc12` [Example 1106], the IC50 was 49.6 nM.
`Cc1nn(CCN2CCCCC2)c(C)c1NC(=O)c1cc(C(F)(F)F)nc2ccc(Br)cc12` [Example 1220] was tested, and the IC50 was 723 nM.
With `Cc1c(NC(=O)c2cc(C(N)=O)nc3ccccc23)c(C(F)(F)F)nn1Cc1cc(F)ccc1C#N` [Example 1652] the IC50 was 112 nM.
With `COc1cccc(CNC(=O)c2ccc(Cn3nc(C)c(NC(=O)c4cc(C(F)(F)F)nc5ccc(Br)cc45)c3C)cc2)c1` [Example 1132] the IC50 was 88.2 nM.
Compound `Cc1nn(Cc2ccc(CC(=O)Nc3ccccc3)cc2)c(C)c1NC(=O)c1cc(C(F)(F)F)nc2ccc(Br)cc12` [Example 155, 6-bromo-N-(3,5-dimethyl-1-{4-[2-oxo-2-(phenylamino)ethyl]benzyl}-1H-pyrazol-4-yl)-2-(trifluoromethyl)quinoline-4-carboxamide] has an IC50 of 312 nM.
`Cc1ccc(Cn2nc(C)c(NC(=O)c3cc(C)nc4ccc(C)cc34)c2C)cc1` [Example 45, N-[3,5-dimethyl-1-(4-methylbenzyl)-1H-pyrazol-4-yl]-2,6-dimethylquinoline-4-carboxamide] showed an IC50 of 35.4 nM.
`CCc1nc(Cn2nc(C)c(NC(=O)c3cc(C(N)=O)nc4ccccc34)c2C)no1` [Example 1500] was tested, and the IC50 was 20.1 nM.
For `Cc1nn(Cc2ccc(C(N)=O)cn2)c(C)c1NC(=O)c1cc(C(N)=O)nc2ccc(F)cc12` [Example 1207], the IC50 was 477 nM.
For `Cc1c(NC(=O)c2cc(C(N)=O)nc3cc(F)ccc23)c(C(F)(F)F)nn1Cc1ncccc1C#N` [Example 1392], the IC50 was 15.5 nM.
With `Cc1c(NC(=O)c2cc(C(N)=O)nc3ccc(Br)cc23)c(C(F)(F)F)nn1Cc1ccc(S(C)(=O)=O)cc1` [Example 1439] the IC50 was 1.9 nM.
In the case of `Cc1nn(Cc2c(F)cc(C#N)cc2F)c(C)c1NC(=O)c1cc(C(N)=O)nc2cc(F)ccc12` [Example 390, N^4-[1-(4-cyano-2,6-difluorobenzyl)-3,5-dimethyl-1H-pyrazol-4-yl]-7-fluoroquinoline-2,4-dicarboxamide], the IC50 is reported as 5.5 nM.
`Cc1cc(Cn2nc(C)c(NC(=O)c3cc(C(F)(F)F)nc4ccc(Br)cc34)c2C)no1` [Example 1505] showed an IC50 of 323 nM.
`Cc1nn(Cc2cccnc2C#N)c(C)c1NC(=O)c1cc(C(N)=O)nc2ccccc12` [Example 223, N^4-{1-[(2-cyanopyridin-3-yl)methyl]-3,5-dimethyl-1H-pyrazol-4-yl}quinoline-2,4-dicarboxamide] showed an IC50 of 11.1 nM.
In the case of `Cc1ccc2nc(C)cc(C(=O)Nc3c(C)nn(Cc4cccnc4)c3C)c2c1` [Example 208, N-[3,5-dimethyl-1-(pyridin-3-ylmethyl)-1H-pyrazol-4-yl]-2,6-dimethylquinoline-4-carboxamide], the IC50 is reported as 741 nM.
In the case of `COc1ccc(CCNC(=O)c2ccc(Cn3nc(C)c(NC(=O)c4cc(C(F)(F)F)nc5ccc(Br)cc45)c3C)cc2)cc1` [Example 1063], the IC50 is reported as 16.8 nM.
`Cc1c(NC(=O)c2cc(C(N)=O)nc3cc(F)c(Cl)cc23)c(C(F)(F)F)nn1Cc1ccncc1C#N` [Example 287, 6-chloro-N^4-{1-[(3-cyanopyridin-4-yl)methyl]-5-methyl-3-(trifluoromethyl)-1H-pyrazol-4-yl}-7-fluoroquinoline-2,4-dicarboxamide] showed an IC50 of 4.8 nM.
Work on `Cc1nn(Cc2cccc(C#N)c2)c(C)c1NC(=O)c1cc(C(N)=O)nc2cc(F)c(Cl)cc12` [Example 1456] yielded an IC50 of 1.5 nM.
Compound `Cc1nc(Cn2nc(C)c(NC(=O)c3cc(C(N)=O)nc4ccccc34)c2C)cs1` [Example 1568] has an IC50 of 27.3 nM.
Compound `Cc1nn(Cc2ccc(C(=O)N[C@H]3CCCC[C@@H]3O)cc2)c(C)c1NC(=O)c1cc(C(F)(F)F)nc2ccc(Br)cc12` [Example 1215] has an IC50 of 649 nM.
`Cc1nn(Cc2ccc(O)cc2)c(C)c1NC(=O)c1cc(C(F)(F)F)nc2ccc(Br)cc12` [Example 164, 6-bromo-N-[1-(4-hydroxybenzyl)-3,5-dimethyl-1H-pyrazol-4-yl]-2-(trifluoromethyl)quinoline-4-carboxamide] gave an IC50 of 27.1 nM.
`Cc1nn(Cc2ccc(C(C)(C)C)cc2)c(C)c1NC(=O)c1cc(C(N)=O)nc2cc(F)ccc12` [Example 1383] was tested, and the IC50 was 140 nM.
